Experimental data from patent US9624241B2 (Incyte Corporation, priority 2013, dated 2017).
Counter-ions that a name gives are not always drawn.

Experiments:
Type in all cases: binding
[1] = target: T1, BRD4-BD2 (Homo sapiens (Human), UniProt O60885); test: BRD4 AlphaScreen Assay (Example A1), BRD4-BD2; details: Assay A1, 20 nM BRD4-BD2, 50 nM H4Ac4 peptide; read-out: BRD4 BD-2 enzyme IC50
Procedure: (§1) BRD4-BD1 and BRD4-BD2 assays were conducted in white 384-well polystyrene plate in a final volume of 20 μL for BD1 and 40 μL for BD2. Inhibitors were first serially diluted in DMSO and added to the plate wells before the addition of other reaction components. […] After plate sealing, the plate was incubated in the dark at room temperature for 75 min. before reading on a PHERAstar FS plate reader (BMG Labtech). IC50 determination was performed by fitting the curve of percent control activity versus the log of the inhibitor concentration using the GraphPad Prism 5.0 software.

[2] = target: T2, BRD4-BD1 (Homo sapiens (Human), UniProt O60885); test: BRD4 AlphaScreen Assay (Example A1), BRD4-BD1; details: Assay A1, 3.8 nM BRD4-BD1, 50 nM H4Ac4 peptide; read-out: BRD4 BD-1 enzyme IC50
Procedure: as §1

[3] = target: T1, BRD4-BD2; test: BRD4 AlphaScreen Assay (Example A2), BRD4-BD2; details: Assay A2, AlphaScreen, BRD4-BD2; read-out: BRD4 BD-2 enzyme IC50
Procedure, shortened: (§2)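 Displacement of 50 nM biotinylated tetra-acetylated histone H4 peptide from BRD4 BD1 or BD2 (<1 nM) in Tris-HCl pH 7.5 buffer with DTT. Inhibitors serially diluted in DMSO, added first, then incubated 75 min in the dark at room temperature before AlphaScreen read. IC50 fitted from percent control activity versus log concentration.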

[4] = target: T2, BRD4-BD1; test: BRD4 AlphaScreen Assay (Example A2), BRD4-BD1; details: Assay A2, AlphaScreen, BRD4-BD1; read-out: BRD4 BD-1 enzyme IC50
Procedure, shortened: as §2

Row | Structure (SMILES) | IC50 [1] [nM] | IC50 [2] [nM] | IC50 [3] [nM] | IC50 [4] [nM]
1 | Cc1noc(C)c1-c1ccc2nc(NC(C)CO)n3c2c1OCC3c1ccccc1 (single isomer, unassigned) [Example 31, 2-{[7-(3,5-Dimethylisoxazol-4-yl)-4-phenyl-4,5-dihydroimidazo[1,5,4-de][1,4]benzoxazin-2-yl]amino}propan-1-ol] | < 100 | < 100 | – | –
2 | CCNc1nc2ccc(-c3c(C)noc3C)c3c2n1C(c1ccccc1)CO3 (stereo not shown) [Example 27, 7-(3,5-Dimethylisoxazol-4-yl)-N-ethyl-4-phenyl-4,5-dihydroimidazo[1,5,4-de][1,4]benzoxazin-2-amine] | < 100 | < 100 | – | –
3 | Cc1noc(C)c1-c1ccc2nc(N3CCCC3)n3c2c1OCC3c1ccccc1 (stereo not shown) [Example 54, 7-(3,5-Dimethylisoxazol-4-yl)-4-phenyl-2-pyrrolidin-1-yl-4,5-dihydroimidazo[1,5,4-de][1,4]benzoxazine] | < 100 | < 100 | – | –
4 | Cn1nccc1-c1cc(Br)c2[nH]c(=O)n3c2c1OCC3c1ccccc1 (stereo not shown) [Example 36, 9-Bromo-7-(1-methyl-1H-pyrazol-5-yl)-4-phenyl-4,5-dihydroimidazo[1,5,4-de][1,4]benzoxazin-2(1H)-one] | < 100 | 100 to 1000 | – | –
5 | Cc1noc(C)c1-c1ccc2ncn3c2c1OCC3c1ccccc1 (stereo not shown) [Example 39, 7-(3,5-Dimethylisoxazol-4-yl)-4-phenyl-4,5-dihydroimidazo[1,5,4-de][1,4]benzoxazine] | < 100 | < 100 | – | –
6 | Cc1noc(C)c1-c1ccc2c3c1OCC(c1ccccc1)n3c(=O)n2C (stereo not shown) [Example 2, 7-(3,5-Dimethylisoxazol-4-yl)-1-methyl-4-phenyl-4,5-dihydroimidazo[1,5,4-de][1,4]benzoxazin-2(1H)-one] | < 100 | < 100 | – | –
7 | Cn1ncc(Cl)c1-c1ccc2[nH]c(=O)n3c2c1OCC3c1ccccc1 (stereo not shown) [Example 38, 7-(4-Chloro-1-methyl-1H-pyrazol-5-yl)-4-phenyl-4,5-dihydroimidazo[1,5,4-de][1,4]benzoxazin-2(1H)-one] | 100 to 1000 | 1000 to 10000 | – | –
8 | Cc1n[nH]cc1-c1ccc2[nH]c(=O)n3c2c1OCC3c1ccccc1 (stereo not shown) [Example 12, 7-(3-Methyl-1H-pyrazol-4-yl)-4-phenyl-4,5-dihydroimidazo[1,5,4-de][1,4]benzoxazin-2(1H)-one] | < 100 | 100 to 1000 | – | –
9 | Cc1noc(C)c1-c1ccc2nc(N3CCCC(O)C3)n3c2c1OCC3c1ccccc1 (stereo not shown) [Example 58, 1-[7-(3,5-Dimethylisoxazol-4-yl)-4-phenyl-4,5-dihydroimidazo[1,5,4-de][1,4]benzoxazin-2-yl]piperidin-3-ol] | < 100 | < 100 | – | –
10 | Cc1noc(C)c1-c1ccc2nc(N(C)C)n3c2c1OCC3c1ccccc1 (stereo not shown) [Example 28, 7-(3,5-Dimethylisoxazol-4-yl)-N,N-dimethyl-4-phenyl-4,5-dihydroimidazo[1,5,4-de][1,4]benzoxazin-2-amine] | < 100 | < 100 | – | –
11 | Cc1noc(C)c1-c1ccc2nc(C3=CCCN(C(=O)OC(C)(C)C)C3)n3c2c1OC[C@@H]3c1ccccn1 [Example 99, tert-Butyl 5-[(4S)-7-(3,5-dimethylisoxazol-4-yl)-4-pyridin-2-yl-4,5-dihydroimidazo[1,5,4-de][1,4]benzoxazin-2-yl]-3,6-dihydropyridine-1(2H)-carboxylate] | – | – | < 100 | < 100
12 | Cc1noc(C)c1-c1ccc2nc(N3CC(O)C3)n3c2c1OCC3c1cccnc1 (single isomer, unassigned) [Example 160C, 1-[7-(3,5-Dimethylisoxazol-4-yl)-4-pyridin-3-yl-4,5-dihydroimidazo[1,5,4-de][1,4]benzoxazin-2-yl]azetidin-3-ol] | – | – | 1000 to 10000 | 1000 to 10000
13 | Cc1noc(C)c1-c1cc(F)c2nc(N(C)C)n3c2c1OCC3c1cccnc1 (stereo not shown) [Example 156, 7-(3,5-Dimethylisoxazol-4-yl)-9-fluoro-N,N-dimethyl-4-pyridin-3-yl-4,5-dihydroimidazo[1,5,4-de][1,4]benzoxazin-2-amine] | – | – | < 100 | 100 to 1000

Other lines, results leading:

Row | IC50 [1] [nM] | IC50 [2] [nM] | IC50 [3] [nM] | IC50 [4] [nM] | Structure (SMILES)
14 | 100 to 1000 | 1000 to 10000 | – | – | Cc1n[nH]c(C)c1-c1ccc2[nH]c(=O)n3c2c1OCC3c1ccccc1 (stereo not shown) [Example 11, 7-(3,5-Dimethyl-1H-pyrazol-4-yl)-4-phenyl-4,5-dihydroimidazo[1,5,4-de][1,4]benzoxazin-2(1H)-one]
15 | < 100 | 100 to 1000 | – | – | Cc1noc(C)c1-c1ccc2[nH]c(=O)n3c2c1OCC3C1CCCO1 (single isomer, unassigned) [Example 18A, 7-(3,5-Dimethylisoxazol-4-yl)-4-(tetrahydrofuran-2-yl)-4,5-dihydroimidazo[1,5,4-de][1,4]benzoxazin-2(1H)-one]
16 | 1000 to 10000 | 1000 to 10000 | – | – | Cc1noc(C)c1-c1ccc2[nH]c(=O)n3c2c1OCC3c1ccccn1 (single isomer, unassigned) [Example 14, 7-(3,5-Dimethylisoxazol-4-yl)-4-pyridin-2-yl-4,5-dihydroimidazo[1,5,4-de][1,4]benzoxazin-2(1H)-one]
17 | < 100 | < 100 | – | – | Cc1noc(C)c1-c1ccc2[nH]c(=O)n3c2c1OCC3c1ccc(F)cc1F (stereo not shown) [Example 8, 7-(3,5-Dimethylisoxazol-4-yl)-4-(2,4-difluorophenyl)-4,5-dihydroimidazo[1,5,4-de][1,4]benzoxazin-2(1H)-one]
18 | < 100 | < 100 | – | – | Cc1noc(C)c1-c1ccc2[nH]c(=O)n3c2c1OC(C)C3c1ccccc1 (stereo not shown) [Example 3, 7-(3,5-Dimethylisoxazol-4-yl)-5-methyl-4-phenyl-4,5-dihydroimidazo[1,5,4-de][1,4]benzoxazin-2(1H)-one]
19 | – | – | < 100 | 100 to 1000 | Cc1noc(C)c1-c1cc(CNC(=O)CN(C)C)c2[nH]c(=O)n3c2c1OC[C@@H]3c1ccccn1 [Example 143, 2-(Dimethylamino)-N-{[(4S)-7-(3,5-dimethylisoxazol-4-yl)-2-oxo-4-pyridin-2-yl-1,2,4,5-tetrahydroimidazo[1,5,4-de][1,4]benzoxazin-9-yl]methyl}acetamide]
20 | – | – | < 100 | 100 to 1000 | Cc1noc(C)c1-c1ccc2[nH]c(=O)n3c2c1CCC3c1ccccn1 (stereo not shown) [Example 123, 7-(3,5-Dimethylisoxazol-4-yl)-4-pyridin-2-yl-5,6-dihydro-4H-imidazo[4,5,1-ij]quinolin-2(1H)-one trifluoroacetate]
21 | – | – | < 100 | < 100 | Cc1noc(C)c1-c1ccc2nc(C3CCCN(C(=O)C4CC4)C3)n3c2c1OC[C@@H]3c1ccccn1 (mixture of isomers) [Example 118, (4S)-2-[1-(cyclopropylcarbonyl)piperidin-3-yl]-7-(3,5-dimethylisoxazol-4-yl)-4-pyridin-2-yl-4,5-dihydroimidazo[1,5,4-de][1,4]benzoxazine (mixture of diastereomers)]
22 | – | – | < 100 | < 100 | Cc1noc(C)c1-c1ccc2[nH]c(=O)n3c2c1OCC3c1ccc(F)cn1 (stereo not shown) [Example 19, 7-(3,5-Dimethylisoxazol-4-yl)-4-(5-fluoropyridin-2-yl)-4,5-dihydroimidazo[1,5,4-de][1,4]benzoxazin-2(1H)-one]
23 | – | – | < 100 | < 100 | Cc1noc(C)c1-c1ccc2nc(C3CCN(S(C)(=O)=O)CC3)n3c2c1OC[C@@H]3c1ccccn1 [Example 112, (4S)-7-(3,5-dimethylisoxazol-4-yl)-2-[1-(methylsulfonyl)piperidin-4-yl]-4-pyridin-2-yl-4,5-dihydroimidazo[1,5,4-de][1,4]benzoxazine]
